{"source": "paper PMC4538832", "about": "“Structures of the T. brucei kRNA editing factor MRB1590 reveal unique RNA-binding pore motif contained within an ABC-ATPase fold” (Nucleic Acids Research, 2015)", "target": "T1, MRB1590(10–668) (Trypanosoma brucei, UniProt Q57ZF2)", "T1 construct": "gene Tb03.30P12.70; residues 10-668 (full length 668, 72 kDa); homodimer, ATP site formed by both subunits", "T1 sequence (Q57ZF2 10-668)": "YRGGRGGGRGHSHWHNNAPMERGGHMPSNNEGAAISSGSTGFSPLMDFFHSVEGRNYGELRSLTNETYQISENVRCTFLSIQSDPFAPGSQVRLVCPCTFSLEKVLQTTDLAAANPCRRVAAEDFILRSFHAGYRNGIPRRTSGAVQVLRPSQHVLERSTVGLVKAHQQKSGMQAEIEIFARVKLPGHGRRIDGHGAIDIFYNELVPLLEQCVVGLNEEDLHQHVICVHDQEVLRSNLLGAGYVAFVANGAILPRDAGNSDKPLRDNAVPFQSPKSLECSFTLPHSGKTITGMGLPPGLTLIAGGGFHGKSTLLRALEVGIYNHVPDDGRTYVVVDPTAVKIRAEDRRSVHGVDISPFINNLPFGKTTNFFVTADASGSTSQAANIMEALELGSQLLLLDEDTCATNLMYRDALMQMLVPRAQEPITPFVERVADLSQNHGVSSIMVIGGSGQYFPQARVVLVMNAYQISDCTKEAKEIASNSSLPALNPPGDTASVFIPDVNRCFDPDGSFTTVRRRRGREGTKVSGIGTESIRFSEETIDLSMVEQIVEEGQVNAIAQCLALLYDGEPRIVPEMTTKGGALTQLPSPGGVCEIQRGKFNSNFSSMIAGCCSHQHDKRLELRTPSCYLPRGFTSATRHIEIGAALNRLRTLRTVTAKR", "assay": "ITC", "type": "binding", "data": [{"compound": "Nc1ncnc2c1ncn2[C@@H]1O[C@H](COP(=O)(O)OP(=O)(O)O)[C@@H](O)[C@H]1O", "note": "[ADP]", "values": [{"measurement": "Kd", "result": "885 ± 49", "unit": "nM"}]}, {"compound": "Nc1ncnc2c1ncn2[C@@H]1O[C@H](COP(=O)(O)OP(=O)(O)NP(=O)(O)O)[C@@H](O)[C@H]1O", "note": "[AMP-PNP]", "values": [{"measurement": "Kd", "result": "1270 ± 210", "unit": "nM"}]}]}
